Values joined by “and” are separate entries in the source; they are usually repeats but may differ in a detail not shown here. Equal entries are not always repeated. Where two headings read alike, the source gives them in different places.
Columns and labels:
Format in all cases: physicochemical
[1] = Fluorescence spectroscopy of complexes 1-13; details: for fluorescence strength: 0.01 mmol concentrations in DMSO; for fluorescence emission λmax /nm / Relative intensity / Relative intensity (values in parentheses): excited at 475 nm; for fluorescence emission λmax /nm / Relative intensity: 0.01 mmol solutions in DMSO; for Relative intensity / Relative intensity (values in parentheses): relative to complex 3; for Relative intensity (values in parentheses): 0.1 mmol solutions; for increase in fluorescence intensity relative to Zn[ATSM] and Zn[ATSM/A]: fluorescence emission
Experimental: (§1) UV/Vis and fluorescence spectra were measured with a Perkin Elmer Lamda 19 spectrometer and a Hitachi F-4500 fluorescence spectrophotometer respectively.
(§2) The optical properties of a range of mono- and binuclear complexes derived from Zn[ATSM/A] (see the table below) were measured by electronic absorption (UV/vis) and fluorescence spectroscopy.
Fluorescence spectroscopy: the fluorescence of complexes 1-13 was measured at 0.1, 0.01 and 0.001 mmol concentrations by exciting at a range of wavelengths from 300 nm to 500 n. At 0.1 mmol and 0.01 mmol concentrations all of the complexes show emissions between 534 nm and 604 nm. […] Values of λmax and the intensity of the fluorescence emission relative to that of complex 3 when excited at 475 nm for complexes 1-13 are give in the following table.
All values relate to 0.01 mmol solutions in DMSO. (a) The values in parentheses refer to 0.1 mmol solutions.

[2] = Fluorescence of Zn[ATS(Me)/A-T-Amino-BTAP] and its precursors; details: 475 nm, DMSO, 0.01 mM
Experimental: as §1
The fluorescence emission spectrum of Zn[ATS(Me)/A-T-Amino-BTAP] can be examined as two regions 400-500 nm, predominantly benzothiazole fluorescence and 490-790 nm, predominantly the zinc (BTSC) fluorescence.
FIGS. 3 and 4 show the fluorescence emission spectra (a) for Amino-BTAP, 4-Aldehydrophenylimino-BTAP and Zn[ATS(Me)/A-T-Amino-BTAP], (375 nm, D MSO, 0.01 mM); and (b) for Zn[ATS(Me)/A-T-Amino-BTAP], Zn[ATS(Me)/A] and Zn[ATS(Me)/A-T], (475 nm. DMSO, 0.01 mM).

[3] = UV/vis spectroscopy of complexes 1-13; details: for λmax (nm), (higher wavelength absorption peak, lowest energy transition) / λmax (nm): DMSO, 0.001 mmol concentration; for ε (mol^-1 dm^3 cm^-1): molar absorption coefficient of the higher wavelength absorption peak, Beer-Lambert law
Experimental: as §1, §2
UV/vis spectroscopy: electronic absorption spectra were recorded in DMSO at 0.1, 0.01 and 0.001 mmol concentrations. Values of λmax were obtained from spectra of solutions at 0.001 mmol concentration, as this is sufficiently dilute to enable intermolecular interactions to be neglected.

[4] = octanol/water partition coefficient (log P)
From the text: Modification of the substituents present on the bis(thiosemicarbazone) ligand can be used to control, for example, the lipophilicity of the ligand and resulting complex. For example, lipophilicity can be increased with increasing alkyl substitution of the conjugated ligand backbone, particularly in the groups R2, R2′, L1, L1′, R1 and R1′.

[5] = Fluorescence emission spectra of zinc bis(thiosemicarbazone) complexes (Zn[BTSCs]); details: for fluorescence peak associated with the phenyl ring: FIG. 2; for Fluorescence Emission λmax(1): peak (1), associated with the phenyl component; for Fluorescence Emission λmax(2): peak (2), associated with the BTSC backbone
Experimental: as §1
In addition to the fluorescence band around 550 nm the Zn[ATS(R)/P-carb] complexes show a second band with at λma 340 nm. This may be associated with the fluorescence of the terminal benzoic acid group.
Fluorescence emission of Zn[ATS(R)/P-Cart] for excitation with DMSO at 300 nm.
To further investigate the effect of addition of a phenyl group onto zinc [BTSC], complexes differing only by the presence of a phenyl group were compared; see FIG. 2.
The Zn[GT(Et)] peak at 335 nm, is a Raman scattering peak. The Zn[PGTS(Et)] peak at 342 nm and the Zn[GTS(Ph)] peak at 397 nm are due to fluorescence associated with the phenyl ring. These peaks are readily differentiated; true fluorescence emission peaks (λmax,) remain static over a range of excitation wavelengths whereas Raman peaks (λmax) vary, as described by Wayne, R. P., in Principles and Applications of Photochemistry, 1986.
(§3) The following table gives the position of λmax for the fluorescence emission spectra and the second and third UV/vis Absorptions for a range of Zn[BTSCs]
Fluorescence peak (1) between 340 and 400 nm, associated with the phenyl component and a second, fluorescence peak (2), present in all complexes between 530 and 570 nm, associated with the BTSC backbone. The intensity of fluorescence peak (1) was always less than that of fluorescence peak (2). Fluorescence peak (2) for the all the phenyl complexes appear at longer wavelengths as these have longer delocalised π systems than their alkyl substituted counterparts.

[6] = UV/Vis absorption of Zn[BTSCs]; details: for UV/Vis Absorption λmax(2): second UV/vis absorption; for UV/Vis Absorption λmax(3): third UV/vis absorption
Experimental: as §1
The co-ordination of BTSCs to zinc produces an extended delocalised system. Zn[ATSM] was the first of these complexes observed to be fluorescent (Emission: λmax=557 nm) and with UV/Vis absorptions at 308 and 429 nm, in line with the predictions of DFT calculations. A third absorption predicted by DFT at below 300 nm was not observed due to limitations of the spectrometer.
as §3

[7] = Cyclic voltammetry in DMF with a glassy carbon electrode; details: vs SCE
From the text: Under the same conditions the hypoxia selective radiopharmaceutical [Cu(ATSM)] undergoes a reversible reduction at E1/2=−0.59 V.

[8] = wavelengths greater than 300 nm

CNC1=NN=C(C)C(C)=NN=C(NN)[S][Zn][S]1 [Complex 2, Zn[ATSM/A]]
fluorescence strength [1]: comparatively weak fluorescence
fluorescence emission λmax /nm [1]: 548 nm
Relative intensity [1]: 0.10
Relative intensity (values in parentheses) [1]: 0.32
fluorescence intensity in the zinc complex region, versus Zn[ATS(Me)/A-T-Amino-BTAP] [2]: approximately tenfold lower
rank of fluorescence emission curve intensity, FIG. 4 (b) [2]: second highest intensity
λmax (nm), (higher wavelength absorption peak, lowest energy transition) [3]: 429 nm
λmax (nm) [3, 8]: 315 nm
ε (mol^-1 dm^3 cm^-1) [3]: 29690 mol^-1 dm^3 cm^-1

CNC1=NN=C(C)C(C)=NN=C(N/N=C/c2ccccc2)[S][Zn][S]1 [Complex 3, Zn[ATSM/A-benzaldehyde]]
fluorescence emission λmax /nm [1]: 553 nm
Relative intensity [1]: 1.00
λmax (nm), (higher wavelength absorption peak, lowest energy transition) [3]: 451 nm
λmax (nm) [3, 8]: 333 nm
ε (mol^-1 dm^3 cm^-1) [3]: 40016 mol^-1 dm^3 cm^-1

CNC1=NN=C(C)C(C)=NN=C(N/N=C/c2ccco2)[S][Zn][S]1 [Complex 4, Zn[ATSM/A-2-furaldehyde]]
fluorescence emission λmax /nm [1]: 551 nm
Relative intensity [1]: 1.05
λmax (nm), (higher wavelength absorption peak, lowest energy transition) [3]: 455 nm
λmax (nm) [3, 8]: 340 nm
ε (mol^-1 dm^3 cm^-1) [3]: 36939 mol^-1 dm^3 cm^-1

CNC1=NN=C(C)C(C)=NN=C(N/N=C/c2ccccc2O)[S][Zn][S]1 [Complex 5, Zn[ATSM/A-salicylaldehyde]]
fluorescence emission λmax /nm [1]: 548 nm
Relative intensity [1]: 0.95
λmax (nm), (higher wavelength absorption peak, lowest energy transition) [3]: 455 nm
λmax (nm) [3, 8]: 346 nm
ε (mol^-1 dm^3 cm^-1) [3]: 51172 mol^-1 dm^3 cm^-1

CNC1=NN=C(C)C(C)=NN=C(N/N=C/c2c(O)ccc3ccccc23)[S][Zn][S]1 [Complex 6, Zn[ATSM/A-2-hydroxynaphthaldehyde]]
fluorescence emission λmax /nm [1]: 558 nm
Relative intensity [1]: 2.61
λmax (nm) [3]: 379 nm
λmax (nm), (higher wavelength absorption peak, lowest energy transition) [3]: 460 nm
λmax (nm) [3, 8]: 334 nm
ε (mol^-1 dm^3 cm^-1) [3]: 62183 mol^-1 dm^3 cm^-1

CCCN(CCC)c1ccc(/C=N/NC2=NN=C(C)C(C)=NN=C(NC)[S][Zn][S]2)cc1 [Complex 7, Zn[ATSM/A-4-(di-n-propylamino)benzaldehyde]]
fluorescence emission λmax /nm [1]: 578 nm
Relative intensity [1]: 2.85
λmax (nm) [3]: 370 nm
λmax (nm), (higher wavelength absorption peak, lowest energy transition) [3]: 465 nm
λmax (nm) [3, 8]: 321 nm
ε (mol^-1 dm^3 cm^-1) [3]: 75127 mol^-1 dm^3 cm^-1

CNC1=NN=C(C)C(C)=NN=C(N/N=C(\C)C(C)=O)[S][Zn][S]1 [Complex 8, Zn[ATSM/A-butane-2,3-dione]]
fluorescence emission λmax /nm [1]: 561 nm
Relative intensity [1]: 0.33
λmax (nm), (higher wavelength absorption peak, lowest energy transition) [3]: 455 nm
λmax (nm) [3, 8]: 323 nm
ε (mol^-1 dm^3 cm^-1) [3]: 35594 mol^-1 dm^3 cm^-1

CNC1=NN=C(C)C(C)=NN=C(N/N=C/C(=O)c2ccccc2)[S][Zn][S]1 [Complex 9, Zn[ATSM/A-phenylglyoxal]]
fluorescence emission λmax /nm [1]: 605 nm
Relative intensity [1]: 0.19
λmax (nm), (higher wavelength absorption peak, lowest energy transition) [3]: 474 nm
λmax (nm) [3, 8]: 341 nm
ε (mol^-1 dm^3 cm^-1) [3]: 46157 mol^-1 dm^3 cm^-1

CNC1=NN=C(C)C(C)=NN=C(N/N=C/c2ccc(C=O)cc2)[S][Zn][S]1 [Complex 10, Zn[ATSM/A-terephthalaldehyde]]
fluorescence emission λmax /nm [1]: 584 nm
Relative intensity [1]: 0.23
fluorescence intensity in the zinc complex region, versus Zn[ATS(Me)/A-T-Amino-BTAP] [2]: approximately tenfold lower
rank of fluorescence emission curve intensity, FIG. 4 (b) [2]: lowest intensity
λmax (nm) [3]: 364 nm
λmax (nm), (higher wavelength absorption peak, lowest energy transition) [3]: 468 nm
ε (mol^-1 dm^3 cm^-1) [3]: 49912 mol^-1 dm^3 cm^-1

CNC1=NN=C(C)C(C)=NN=C(N/N=C/C=N/NC2=NN=C(C)C(C)=NN=C(NC)[S][Zn][S]2)[S][Zn][S]1 [Complex 11, Zn2[ATSM/A-glyoxal-ATSM/A]]
fluorescence emission λmax /nm [1]: 558 nm
increase in fluorescence intensity relative to Zn[ATSM] and Zn[ATSM/A] [1]: almost thirty-fold increase
Relative intensity [1]: 2.46
λmax (nm), (higher wavelength absorption peak, lowest energy transition) [3]: 489 nm
λmax (nm) [3, 8]: 330 nm
ε (mol^-1 dm^3 cm^-1) [3]: 126450 mol^-1 dm^3 cm^-1

CNC1=NN=C(C)C(C)=NN=C(N/N=C/c2cccc(/C=N/NC3=NN=C(C)C(C)=NN=C(NC)[S][Zn][S]3)c2)[S][Zn][S]1 [Complex 13, Zn2[ATSM/A-isopthalaldehyde-ZnATSM/A]]
fluorescence emission λmax /nm [1]: 567 nm
increase in fluorescence intensity relative to Zn[ATSM] and Zn[ATSM/A] [1]: almost thirty-fold increase
Relative intensity [1]: 2.65
λmax (nm), (higher wavelength absorption peak, lowest energy transition) [3]: 457 nm
λmax (nm) [3, 8]: 339 nm
ε (mol^-1 dm^3 cm^-1) [3]: 79475 mol^-1 dm^3 cm^-1

CC(C=NNC(=S)N(C)C)=NNC(=S)N(C)C.[Cu] [Cu[PTSM2]]
log P [4]: 3.18

CC1=[N+]2N=C(N)[S][Cu-2]23[S]C(N)=N[N+]3=C1 (stereo not drawn) [Cu[PTS]]
log P ([4]; P is the octanol/water partition coefficient): 0.76

CCNC1=N[N+]2=CC(c3ccccc3)=[N+]3N=C(NCC)[S][Zn-2]23[S]1 (stereo not drawn) [Zn PGTS(Et), Zn [PGTS(Et)]]
fluorescence peak associated with the phenyl ring [5]: 342 nm
Fluorescence Emission λmax(1) [5]: 391 nm
Fluorescence Emission λmax(2) [5]: 567 nm
UV/Vis Absorption λmax(2) [6]: 331 nm
UV/Vis Absorption λmax(3) [6]: 466 nm

CCNC1=N[N+]2=CC=[N+]3N=C(NCC)[S][Zn-2]23[S]1 [Zn[GTS(Et)]]
Fluorescence Emission λmax(2) [5]: 550 nm
UV/Vis Absorption λmax(2) [6]: 323 nm
UV/Vis Absorption λmax(3) [6]: 445 nm

CNC([S-])=NN=CC=NN=C([S-])NC.[Zn+2] [Zn[GTS(Me)]]
Fluorescence Emission λmax(2) [5]: 550 nm
UV/Vis Absorption λmax(2) [6]: 334 nm
UV/Vis Absorption λmax(3) [6]: 446 nm

C1=[N+]2N=C(Nc3ccccc3)[S][Zn-2]23[S]C(Nc2ccccc2)=N[N+]3=C1 [Zn[GTS(Ph)]]
fluorescence peak associated with the phenyl ring [5]: 397 nm
Fluorescence Emission λmax(1) [5]: 340 nm
Fluorescence Emission λmax(2) [5]: 575 nm
UV/Vis Absorption λmax(2) [6]: 342 nm
UV/Vis Absorption λmax(3) [6]: 469 nm

CN=C([S-])N/N=C(C)/C(C)=N/NC([S-])=NC.[Cu+2] [[Cu(ATSM)], Cu[ATSM], reference compound]
E1/2 of reduction (Cu(II) to Cu(I)) [7]: −0.59 V

Zn[ATSM] [Complex 1, reference compound]
fluorescence strength [1]: comparatively weak fluorescence
fluorescence emission λmax /nm [1]: 534 nm
Relative intensity [1]: 0.09
Relative intensity (values in parentheses) [1]: 0.35
Emission λmax [5]: 557 nm
λmax (nm), (higher wavelength absorption peak, lowest energy transition) [3]: 429 nm
λmax (nm) [3, 8]: 308 nm
ε (mol^-1 dm^3 cm^-1) [3]: 29444 mol^-1 dm^3 cm^-1
UV/Vis absorptions [6]: 308 nm and 429 nm

From US8299285B2, “Compounds for imaging and therapy” (Isis Innovation Limited, priority 2005, dated 2012)
